Laboratory results: patent publication US20180284095A1, “BIOMARKERS ASSOCIATED WITH LSD1 INHIBITORS AND USES THEREOF” (Oryzon Genomics, S.A., priority 2015, published 2018)

Tests used:
[1] = biological target: T1, Human recombinant monoamine oxidase MAO-B (Homo sapiens, UniProt P27338); assay: MAO-B fluorescence-based kynuramine assay; type: biochemical
T1 construct: purchased Sigma Aldrich
T1 sequence (P27338 1-520): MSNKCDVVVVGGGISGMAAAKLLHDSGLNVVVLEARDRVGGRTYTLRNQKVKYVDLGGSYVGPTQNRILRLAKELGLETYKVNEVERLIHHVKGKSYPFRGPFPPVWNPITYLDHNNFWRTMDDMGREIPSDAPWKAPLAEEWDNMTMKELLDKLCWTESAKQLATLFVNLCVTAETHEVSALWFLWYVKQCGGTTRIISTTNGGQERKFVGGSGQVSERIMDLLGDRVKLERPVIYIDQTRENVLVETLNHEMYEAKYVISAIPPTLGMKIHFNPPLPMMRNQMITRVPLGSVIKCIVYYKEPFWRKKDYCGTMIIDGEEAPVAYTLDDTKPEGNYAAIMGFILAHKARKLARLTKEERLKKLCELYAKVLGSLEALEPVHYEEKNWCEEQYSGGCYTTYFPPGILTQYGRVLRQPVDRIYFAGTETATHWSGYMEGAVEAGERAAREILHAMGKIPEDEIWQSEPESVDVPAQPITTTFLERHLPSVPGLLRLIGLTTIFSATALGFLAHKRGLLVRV
Source text: MAOs catalyze the oxidative deamination of primary, secondary and tertiary amines. In order to monitor MAO enzymatic activities and/or their inhibition rate by inhibitor(s) of interest, a fluorescence-based (inhibitor)-screening assay was set up. 3-(2-Aminophenyl)-3-oxopropanamine (kynuramine dihydrobromide, Sigma Aldrich), a non fluorescent compound was chosen as a substrate. Kynuramine is a non-specific substrate for both MAO-A and MAO-B activities. While undergoing oxidative deamination by MAO activities, kynuramine is converted into 4-hydroxyquinoline (4-HQ), a resulting fluorescent product.
The monoamine oxidase activity was estimated by measuring the conversion of kynuramine into 4-hydroxyquinoline. Assays were conducted in 96-well black plates with clear bottom (Corning) in a final volume of 100 μL. […]
After leaving the enzyme(s) interacting with the inhibitor, KM of kynuramine was added to each reaction for MAO-B and MAO-A assay respectively, and the reaction was left for 1 hour at 37° C. in the dark. […] The conversion of kynuramine to 4-hydroxyquinoline, was monitored by fluorescence (excitation at 320 nm, emission at 360 nm) using a microplate reader (Infinite 200, Tecan). Arbitrary units were used to measure levels of fluorescence produced in the absence and/or in the presence of inhibitor.
The IC50 values of each inhibitor were calculated with GraphPad Prism Software.

TUBB2C = assay: Microarray gene expression, brain of Hsd:ICR (CD1) mice, MTD study (Example 6), housekeeping gene; type: in vivo, mouse; conditions: brain day 5, male CD1 mice pool
Protocol: Total RNA was extracted from samples using the RNeasy extraction kit (Qiagen). The quality and concentration of the RNA was analyzed using the Agilent 2100 bioanalyzer and NanoDrop™ ND-1000 (Thermo Scientific). Samples with RNA integrity number (RIN)<6.0 were discarded. Total RNA (0.5 μg) amplification and labelling with Cy3 or Cy5 was carried out using the Eberwein mRNA amplification procedure (Van Gelder et al, Proc Natl Acad Sci USA 1990, 87:1663-1667) employing the MessageAmp™ aRNA amplification kit from Ambion (Applied Biosystems) following the manufacturer's instructions with minor modifications. As hybridization controls, plant mRNAs were transcribed from a plasmid containing the Zea mays Xet (xyloglucan endo-transglycosylase) cDNA and from a plasmid containing the Zea mays Zmmyb42 cDNA, independently prepared Cy3 and Cy5 labelled aRNA from these two RNAs using the Eberwein mRNA amplification procedure (as disclosed in Cerdà et al, Gen Comp Endocrinol 2008, 156:470-481).
The Cy3- and Cy5-labelled cRNAs and spikes were combined and hybridized to the microarray described in Example 2.6 for 17 h at 60° C. using Agilent's gaskets G2534-60002, G2534A hybridization chambers and DNA Hybridization Oven G2545A, according to the manufacturer's instructions. More specifically, equal amounts of Cy3 and Cy5 labeled Xet aRNA as well as equal amounts of Cy3 and Cy5 labeled Zmmyb42 aRNA were spiked into each mixture hybridized to the array. Arrays were washed and raw data were obtained using Agilent's DNA Microarray Scanner G2505B and Feature Extraction software (v10.1). The raw fluorescence intensity data were processed using applicant's proprietary software, and consists in the following operations:
Data normalization was carried out by an improved version of the nonlinear Q-splines normalization method (Workman et al., Genome Biol 2002, 3(9):research0048.1-0048.16). Normalization results were presented graphically as MA plots, as first described by Dudoit et al (Dudoit et al, Statistica Sinica, 2002, 12:111-139). Each point corresponds to a probe of the DNA array. M values (vertical axis) are the log-differential expression ratios. A values (horizontal axis) are the log-intensities of the spots. M and A are calculated from the Cy5 and Cy3 intensity values as of each spot. The DNA Array data is normalized using an improved version of non-linear Q-Splines normalization described by Workman et al., Genome Biol 2002, 3(9):research0048.1-0048.16. This process is useful to correct the deviation of the M values from the statistical assumption that most of the spots have M=0 in MA plots. […]. The data used to calculate the normalization fitting curve is the totality of the raw measurement dataset, excluding the signals for the probes for the spiked-in plant RNA controls and negative controls. In order to be able to normalize properly the data among all the experiments, the probe-set must include an important group of genes that should have no change (M=0) in the experiment. The normalization function is then applied to all the data, including controls.
Normalized and log-transformed data were used to calculate log 2 (sample/control) and Fold Change (FC) values. No background subtraction was applied to the signal intensity values during data processing, permitting robust selection of differentially expressed genes with low expression levels at the cost of potential sub-estimation of change when intensity levels are close to the array background level.
Male Hsd:ICR (CD1®) mice were maintained in air- and temperature-controlled cages with regular supply of water and food. A maximum of 3 mice were raised per cage. Three mice were assigned to each group. Before the first administration, each mouse was labeled and weighed. Test compounds were administered orally using 1 ml syringes using animal feeding needles proper for mice at 10 ml/kg as follows. […]

[2] = 3 mg/kg oral x5 days vs vehicle
[3] = 10 mg/kg oral x5 days vs vehicle
[4] = 30 mg/kg oral x5 days vs vehicle
[5] = 100 mg/kg oral x5 days vs vehicle

NC(=O)CN[C@H]1C[C@@H]1c1ccc(OCc2ccccc2)cc1 (racemic) [Compound 3, 2-(((trans)-2-(4-(benzyloxy)phenyl)cyclopropyl)amino)acetamide]
IC50 [1]: 0.07 µM

N[C@H]1CCN(CCN[C@H]2C[C@@H]2c2ccc(-c3cccc(C(F)(F)F)c3)cc2)C1 (racemic) [Compound 5, (S)-1-(2-(((trans)-2-(3′-(trifluoromethyl)-[1,1′-biphenyl]-4-yl)cyclopropyl)amino)ethyl)pyrrolidin-3-amine]
IC50 [1]: 5.1 µM

(+) 5-((((trans)-2-(4-(benzyloxy)phenyl)cyclopropyl)amino)methyl)-1,3,4-oxadiazol-2-amine [Compound 2]
Hybridization signal sample_Cy5 TUBB2C (TUBB2C; 3 mg/kg oral x5 days): 5746.61
log2 (sample/control) TUBB2C (TUBB2C; [2]): 0.1908
Hybridization signal sample_Cy5 TUBB2C (TUBB2C; 10 mg/kg oral x5 days): 5742.06
log2 (sample/control) TUBB2C (TUBB2C; [3]): 0.1179
Hybridization signal sample_Cy5 TUBB2C (TUBB2C; 30 mg/kg oral x5 days): 6326.04
log2 (sample/control) TUBB2C (TUBB2C; [4]): 0.1798
Hybridization signal sample_Cy5 TUBB2C (TUBB2C; 100 mg/kg oral x5 days): 3724.28
log2 (sample/control) TUBB2C (TUBB2C; [5]): −0.3983

(−) 5-((((trans)-2-(4-(benzyloxy)phenyl)cyclopropyl)amino)methyl)-1,3,4-oxadiazol-2-amine [Compound 1]
Hybridization signal sample_Cy5 TUBB2C (TUBB2C; 3 mg/kg oral x5 days): 5008.03
log2 (sample/control) TUBB2C (TUBB2C; [2]): −0.03216
Hybridization signal sample_Cy5 TUBB2C (TUBB2C; 10 mg/kg oral x5 days): 3965.09
log2 (sample/control) TUBB2C (TUBB2C; [3]): −0.309
Hybridization signal sample_Cy5 TUBB2C (TUBB2C; 30 mg/kg oral x5 days): 5060.07
log2 (sample/control) TUBB2C (TUBB2C; [4]): 0.03544
Hybridization signal sample_Cy5 TUBB2C (TUBB2C; 100 mg/kg oral x5 days): 5579.26
log2 (sample/control) TUBB2C (TUBB2C; [5]): 0.0424
